According to patent publication US20200131142A1, “FARNESOID X RECEPTOR AGONISTS AND USES THEREOF” (Metacrine, Inc., priority 2017, published 2020):

The compounds below were run against T1, hFXR (Homo sapiens, UniProt Q96RI1) (assay: In Vitro FXR Assay (TK): hFXR/hRXR TK-ECRE-luc reporter in transfected CV-1 cells). Settings: 18 hrs incubation, luminescence, compounds with maximum efficacy <25% of the Fexarmine control classified as '+'.
T1 construct: expressed in transfected cells; host or cells: CV-1 cells
T1 sequence (Q96RI1 1-486): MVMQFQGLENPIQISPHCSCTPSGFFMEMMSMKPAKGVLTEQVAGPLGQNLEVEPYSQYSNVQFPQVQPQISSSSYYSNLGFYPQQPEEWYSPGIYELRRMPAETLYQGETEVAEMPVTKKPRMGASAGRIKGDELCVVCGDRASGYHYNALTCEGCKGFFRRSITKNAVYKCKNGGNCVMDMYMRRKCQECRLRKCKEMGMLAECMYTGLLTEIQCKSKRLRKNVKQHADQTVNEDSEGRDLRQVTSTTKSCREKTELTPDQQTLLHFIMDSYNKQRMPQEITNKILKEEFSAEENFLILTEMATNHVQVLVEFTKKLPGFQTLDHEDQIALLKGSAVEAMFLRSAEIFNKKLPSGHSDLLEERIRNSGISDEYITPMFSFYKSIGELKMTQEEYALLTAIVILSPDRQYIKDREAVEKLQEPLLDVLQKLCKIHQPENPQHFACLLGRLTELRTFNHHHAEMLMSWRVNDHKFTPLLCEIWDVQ
T1 sequence (P19793 1-462 partner): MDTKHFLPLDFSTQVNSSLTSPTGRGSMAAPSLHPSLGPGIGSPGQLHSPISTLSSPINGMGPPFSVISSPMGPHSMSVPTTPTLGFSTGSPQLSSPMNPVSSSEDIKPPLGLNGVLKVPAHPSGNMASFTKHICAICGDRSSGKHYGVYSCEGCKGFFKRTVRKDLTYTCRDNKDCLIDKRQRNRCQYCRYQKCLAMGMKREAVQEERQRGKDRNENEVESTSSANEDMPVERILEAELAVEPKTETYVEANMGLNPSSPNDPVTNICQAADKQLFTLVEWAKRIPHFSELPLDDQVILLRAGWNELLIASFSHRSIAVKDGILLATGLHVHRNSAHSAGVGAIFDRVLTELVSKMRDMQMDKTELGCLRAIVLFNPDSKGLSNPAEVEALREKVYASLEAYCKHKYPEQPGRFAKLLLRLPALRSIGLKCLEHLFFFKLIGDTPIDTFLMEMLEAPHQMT
Assay type: cell-based
Experimental: Example B-1: In Vitro FXR Assay (TK)
CV-1 cells were seeded at a density of 2,000,000 cells in a T175 flask with DMEM+10% charcoal double-stripped FBS and incubated at 37° C. in 5% CO2 for 18 h (O/N).
After 18 h of incubation, the medium in the T175 flask was changed with fresh DMEM+10% charcoal super-stripped serum. In a polypropylene tube, 2500 μL OptiMEM (Life Technologies, Cat #31985-062) was combined with expression plasmids for hFXR, hRXR, TK-ECRE-luc and pCMX-YFP. The tube was then briefly vortexed and incubated at room temperature for 5 minutes. Transfection reagent (X-tremeGENE HP from Roche, Cat #06 366 236 001) was added to the OptiMEM/plasmid mixture vortexed and incubated at room temperature for 20 minutes. Following incubation, the transfection reagent/DNA mixture complex was added to cells in the T175 flask and the cells were incubated at 37° C. in 5% CO2 for 18 h (O/N).
Compounds were serially diluted in DMSO and added to transfected CV-1 cells. The cells were then incubated for 18 hrs. The next day cells were lysed and examined for luminescence.

SMILES | EC50 [nM]
Cc1cc([C@H]2CC[C@H](CN(c3cccc(-c4cnc(C5CC5)s4)c3)C(=O)[C@H]3CC[C@H](O)CC3)CC2)ccc1N(C)S(C)(=O)=O [Compound 9.15, trans-N-(3-(2-Cyclopropylthiazol-5-yl)phenyl)-4-hydroxy-N-((trans-4-(3-methyl-4-(N-methylmethylsulfonamido)phenyl)cyclohexyl)methyl)cyclohexanecarboxamide] | 250 to 1000
COc1ccc([C@H]2CC[C@H](CN(c3cccc(-c4cnc(N5CCCCC5)s4)c3)C(=O)[C@H]3CC[C@H](O)CC3)CC2)cc1C [Compound 7.14, trans-4-Hydroxy-N-((trans-4-(4-methoxy-3-methylphenyl)cyclohexyl)methyl)-N-(3-(2-(piperidin-1-yl)thiazol-5-yl)phenyl)cyclohexanecarboxamide] | ≤ 250
COc1ccc([C@H]2CC[C@H](CN(c3cc(-c4cnc(C(C)C)s4)ccn3)C(=O)[C@H]3CC[C@H](O)CC3)CC2)cc1C [Compound 9.28, trans-4-Hydroxy-N-(4-(2-isoporpylthiazol-5-yl)pyridin-2-yl)-N-((trans-4-(4-methoxy-3-methylphenyl)cyclohexyl)methyl) cyclohexanecarboxamide] | ≤ 250
CN(C)c1ccc([C@H]2CC[C@H](CN(c3cccc(-c4cnc(C5CC5)s4)c3)C(=O)[C@H]3CC[C@H](O)CC3)CC2)cn1 [Compound 9.07, trans-N-(3-(2-Cyclopropylthiazol-5-yl)phenyl)-N-((trans-4-(6-(dimethylamino)pyridin-3-yl)cyclohexyl)methyl)-4-hydroxycyclohexanecarboxamide] | ≤ 250
COc1ccc([C@H]2CC[C@H](CN(c3cccc(-c4cnc(C5CCC5)s4)c3)C(=O)[C@H]3CC[C@H](O)CC3)CC2)cc1C [Compound 7.08, trans-N-(3-(2-Cyclobutylthiazol-5-yl)phenyl)-4-hydroxy-N-((trans-4-(4-methoxy-3-methylphenyl)cyclohexyl)methyl) cyclohexanecarboxamide] | ≤ 250
COc1ccc([C@H]2CC[C@H](CN(c3cc(-c4cnc(C5CC5)s4)ccn3)C(=O)[C@H]3CC[C@H](O)CC3)CC2)nc1C [Compound 9.20, trans-N-(4-(2-Cyclopropylthiazol-5-yl)pyridin-2-yl)-4-hydroxy-N-((trans-4-(5-methoxy-6-methylpyridin-2-yl)cyclohexyl)methyl)cyclohexanecarboxamide] | ≤ 250
COc1ccc([C@H]2CC[C@H](CN(c3cccc(-c4cnc(-c5ccccc5)s4)c3)C(=O)[C@H]3CC[C@H](O)CC3)CC2)cc1C [Compound 7.10, trans-4-Hydroxy-N-((trans-4-(4-methoxy-3-methylphenyl)cyclohexyl)methyl)-N-(3-(2-phenylthiazol-5-yl)phenyl)cyclohexanecarboxamide] | ≤ 250
COc1ncc(-c2cccc(N(C[C@H]3CC[C@H](c4ccc(OC)c(C)n4)CC3)C(=O)[C@H]3CC[C@H](O)CC3)c2)s1 [Compound 9.02, trans-4-Hydroxy-N-((trans-4-(5-methoxy-6-methylpyridin-2-yl)cyclohexyl)methyl)-N-(3-(2-methoxythiazol-5-yl)phenyl)cyclohexanecarboxamide] | ≤ 250
COc1ccc([C@H]2CC[C@H](CN(c3cccc(-c4cnc(C5CCCCC5)s4)c3)C(=O)[C@H]3CC[C@H](O)CC3)CC2)cc1C [Compound 7.09, trans-N-(3-(2-Cyclohexylthiazol-5-yl)phenyl)-4-hydroxy-N-((trans-4-(4-methoxy-3-methylphenyl)cyclohexyl)methyl) cyclohexanecarboxamide] | 250 to 1000
COc1ccc([C@H]2CC[C@H](CN(c3cccc(-c4cnc(C5CC5)s4)c3)C(=O)[C@H]3CC[C@H](N(C)C)CC3)CC2)cc1C [Compound 13, trans-N-(3-(2-Cyclopropylthiazol-5-yl)phenyl)-4-(dimethylamino)-N-((trans-4-(4-methoxy-3-methylphenyl)cyclohexyl)methyl) cyclohexanecarboxamide] | ≥ 1000
COc1ccc([C@H]2CC[C@H](CN(c3cccc(-c4cnc(C(C)C)s4)c3)C(=O)[C@H]3CC[C@H](O)CC3)CC2)nc1C [Compound 9.27, trans-4-Hydroxy-N-(3-(2-isopropylthiazol-5-yl)phenyl)-N-((trans-4-(5-methoxy-6-methylpyridin-2-yl)cyclohexyl)methyl)cyclohexanecarboxamide] | ≤ 250

More lines, now with the values ahead:

EC50 [nM] | SMILES
≤ 250 | COc1ccc([C@H]2CC[C@H](CN(c3cccc(-c4cnc(C)s4)c3)C(=O)[C@H]3CC[C@H](O)CC3)CC2)cc1C [Compound 6.03, trans-4-Hydroxy-N-((trans-4-(4-methoxy-3-methylphenyl)cyclohexyl)methyl)-N-(3-(2-methylthiazol-5-yl)phenyl)cyclohexanecarboxamide]
250 to 1000 | COc1ccc([C@H]2CC[C@H](CN(c3cccc(-c4csc(C)n4)c3)C(=O)[C@H]3CC[C@H](O)CC3)CC2)cc1C [Compound 7.02, trans-4-Hydroxy-N-((trans-4-(4-methoxy-3-methylphenyl)cyclohexyl)methyl)-N-(3-(2-methylthiazol-4-yl)phenyl)cyclohexanecarboxamide]
≤ 250 | CCc1ncc(-c2cccc(N(C[C@H]3CC[C@H](c4ccc(OC)c(C)c4)CC3)C(=O)[C@H]3CC[C@H](O)CC3)c2)s1 [Compound 7.05, trans-N-(3-(2-Ethylthiazol-5-yl)phenyl)-4-hydroxy-N-((trans-4-(4-methoxy-3-methylphenyl)cyclohexyl)methyl) cyclohexanecarboxamide]
≥ 1000 | COc1ccc([C@H]2CC[C@H](CN(c3cccc(-c4sc(C)nc4C)c3)C(=O)[C@H]3CC[C@H](O)CC3)CC2)cc1C [Compound 7.04, trans-N-(3-(2,4-Dimethylthiazol-5-yl)phenyl)-4-hydroxy-N-((trans-4-(4-methoxy-3-methylphenyl)cyclohexyl)methyl) cyclohexanecarboxamide]
≤ 250 | COc1ccc([C@H]2CC[C@H](CN(c3cccc(-c4cnc(C(C)(C)C)s4)c3)C(=O)[C@H]3CC[C@H](O)CC3)CC2)cc1C [Compound 7.07, trans-N-(3-(2-(tert-Butyl)thiazol-5-yl)phenyl)-4-hydroxy-N-((trans-4-(4-methoxy-3-methylphenyl)cyclohexyl)methyl) cyclohexanecarboxamide]
≥ 1000 | COc1ccc([C@H]2CC[C@H](CN(c3cccc(-c4nc(C)cs4)c3)C(=O)[C@H]3CC[C@H](O)CC3)CC2)cc1C [Compound 7.01, trans-4-Hydroxy-N-((trans-4-(4-methoxy-3-methylphenyl)cyclohexyl)methyl)-N-(3-(4-methylthiazol-2-yl)phenyl)cyclohexanecarboxamide]
≤ 250 | COc1ccc([C@H]2CC[C@H](CN(c3cccc(C#Cc4cscn4)c3)C(=O)[C@H]3CC[C@H](O)CC3)CC2)cc1C [Compound 8, trans-4-Hydroxy-N-((trans-4-(4-methoxy-3-methylphenyl)cyclohexyl)methyl)-N-(3-(thiazol-4-ylethynyl)phenyl)cyclohexanecarboxamide]
≤ 250 | COc1ncc(-c2cccc(N(C[C@H]3CC[C@H](c4ccc(OC)c(C)c4)CC3)C(=O)[C@H]3CC[C@@H](O)CC3)c2)s1 [Compound 5, cis-4-Hydroxy-N-((trans-4-(4-methoxy-3-methylphenyl)cyclohexyl)methyl)-N-(3-(2-methoxythiazol-5-yl)phenyl)cyclohexanecarboxamide]
≤ 250 | COc1ccc([C@H]2CC[C@H](CN(c3cccc(C#Cc4ncc(C)s4)c3)C(=O)[C@H]3CC[C@H](O)CC3)CC2)cc1C [Compound 8.02, trans-4-Hydroxy-N-((trans-4-(4-methoxy-3-methylphenyl)cyclohexyl)methyl)-N-(3-((5-methylthiazol-2-yl)ethynyl)phenyl)cyclohexanecarboxamide]
